Measured values reported in BigSolDB 2.1.

O=[N+]([O-])c1ncccc1O
solubility (mole fraction)
Details	in THF	in acetone	in acetonitrile	in ethanol	in ethyl acetate	in isopropanol	in methanol	in n-hexane	in n-propanol	in water
278.15 K	0.213	0.157	0.113	0.0236	0.108	0.0158	0.0395	0.00055	0.0299	0.00083
283.15 K	0.243	0.184	0.141	0.0334	0.128	0.0226	0.0551	0.00077	0.0391	0.00107
288.15 K	0.274	0.219	0.171	0.0482	0.151	0.0318	0.0807	0.00105	0.0523	0.00149
293.15 K	0.312	0.259	0.207	0.0653	0.181	0.0442	0.111	0.00144	0.0716	0.0021
298.15 K	0.35	0.304	0.247	0.0924	0.215	0.0621	0.153	0.00192	0.0947	0.00283
303.15 K	0.396	0.354	0.299	0.128	0.254	0.0863	0.206	0.00266	0.127	0.00393
308.15 K	0.446	0.41	0.359	0.173	0.301	0.12	0.271	0.00373	0.17	0.00544
313.15 K	0.502	0.474	0.428	0.232	0.357	0.165	0.352	0.00522	0.224	0.00753
318.15 K	0.57	0.544	0.502	0.306	0.423	0.224	0.446	0.00736	0.292	0.0109
